The values below come from patent US7723373B2, “Indole-3-sulphur derivatives” (AstraZeneca AB, priority 2002, dated 2010).

This assay addresses T1, rhCRTh2 (Homo sapiens, UniProt Q9Y5Y4).
T1 construct: expressed in transfected cells; host or cells: HEK cells (membrane preparation)
T1 sequence (Q9Y5Y4 1-395): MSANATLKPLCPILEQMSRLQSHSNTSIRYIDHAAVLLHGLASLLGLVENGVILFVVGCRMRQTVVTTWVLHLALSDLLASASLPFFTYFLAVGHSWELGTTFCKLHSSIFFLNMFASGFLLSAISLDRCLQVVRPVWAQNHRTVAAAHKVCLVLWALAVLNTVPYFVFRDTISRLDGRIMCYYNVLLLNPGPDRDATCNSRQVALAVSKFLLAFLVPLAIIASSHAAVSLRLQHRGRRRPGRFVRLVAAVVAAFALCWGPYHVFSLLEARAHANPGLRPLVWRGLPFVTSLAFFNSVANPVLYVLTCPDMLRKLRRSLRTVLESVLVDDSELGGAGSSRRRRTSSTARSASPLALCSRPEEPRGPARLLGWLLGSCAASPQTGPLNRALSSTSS
The assay is described as follows: Ligand binding assay ([3H]PGD2 SPA, HEK cell membranes). To be noted: [3H]PGD2 binding to membranes of HEK cells expressing rhCRTh2/Gα16, SPA beads, 2 hours at room temperature. The procedure: [^3H]PGD2 was purchased from Perkin Elmer Life Sciences with a specific activity of 100-210 Ci/mmol. All other chemicals were of analytical grade.
HEK cells expressing rhCRTh2/Gα16 were routinely maintained in DMEM containing 10% Fetal Bovine Serum (HyClone), 1 mg/ml geneticin, 2 mM L-glutamine and 1% non-essential amino acids. For the preparation of membranes, the adherent transfected HEKcells were grown to confluence in two layer tissue culture factories (Fisher, catalogue number TKT-170-070E). Maximal levels of receptor expression were induced by addition of […] sodium butyrate for the last 18 hours of culture. The adherent cells were washed once with phosphate buffered saline (PBS, 50 ml per cell factory) and detached by the addition of 50 ml per cell factory of ice-cold membrane homogenisation buffer [20 mM HEPES (pH 7.4), 0.1 mM dithiothreitol, 1 mM EDTA, 0.1 mM phenyl methyl sulphonyl fluoride and 100 μg/ml bacitracin]. […] The final pellet was re-suspended in 4 ml of membrane homogenisation buffer per cell factory used and the protein content determined. […]
All assays were performed in Corning clear bottomed, white 96-well NBS plates (Fisher). […] (The optimum coating concentrations were determined for each batch of membranes) The beads were pelleted by centrifugation (800×g for 7 minutes at 4° C.), washed once with assay buffer (50 mM HEPES pH 7.4 containing 5 mM magnesium chloride) and finally re-suspended in assay buffer at a bead concentration of 10 mg/ml.
Each assay contained 20 μl of 6.25 nM [^3]PGD2, 20 μl membrane saturated SPA beads both in assay buffer and 10 μl of compound solution or 13,14-dihydro-15-keto prostaglandin D2 (DK-PGD2, for determination of non-specific binding Cayman chemical company). […] The assay plate was incubated at room temperature for 2 hours and counted on a Wallac Microbeta liquid scintillation counter (1 minute per well).

One may read the IC50 as the concentration at which inhibition is half-maximal. In turn, `Cc1c(S(=O)(=O)c2ccc(Cl)cc2)c2cc(Cl)ccc2n1CC(=O)O` [Example 2, 5-chloro-3-[(4-chlorophenyl)sulfonyl]-2-methyl-1H-indole-1-acetic acid] had an IC50 of 7.94 nM.
The pIC50 is the IC50 on a negative log10 scale, so that one unit is a factor of ten. Regarding “5-chloro-3-[(4-chlorophenyl)sulfonyl]-6-cyano-2-methyl-1H-indole-1-acetic acid [Example 6]”, the pIC50 is recorded as 7.
`Cc1ccc2c(c1)c([S+]([O-])c1ccc(Cl)cc1)c(C)n2CC(=O)O` (stereo not drawn) [Example 7, 3-[(4-chlorophenyl)sulfinyl]-2,5-dimethyl-1H-indole-1-acetic acid] gave an IC50 of 251 nM.
